Experimental data reported in PMC9500845, “New Anticancer Theobromine Derivative Targeting EGFR^WT and EGFR^T790M: Design, Semi-Synthesis, In Silico, and In Vitro Anticancer Studies” (Molecules, 2022).

Molecular target: EGFR (Homo sapiens, UniProt P00533)
Test: in vitro EGFR enzyme inhibition, Human EGFR ELISA kit
Type: biochemical

Sequence of EGFR (P00533 25-1210): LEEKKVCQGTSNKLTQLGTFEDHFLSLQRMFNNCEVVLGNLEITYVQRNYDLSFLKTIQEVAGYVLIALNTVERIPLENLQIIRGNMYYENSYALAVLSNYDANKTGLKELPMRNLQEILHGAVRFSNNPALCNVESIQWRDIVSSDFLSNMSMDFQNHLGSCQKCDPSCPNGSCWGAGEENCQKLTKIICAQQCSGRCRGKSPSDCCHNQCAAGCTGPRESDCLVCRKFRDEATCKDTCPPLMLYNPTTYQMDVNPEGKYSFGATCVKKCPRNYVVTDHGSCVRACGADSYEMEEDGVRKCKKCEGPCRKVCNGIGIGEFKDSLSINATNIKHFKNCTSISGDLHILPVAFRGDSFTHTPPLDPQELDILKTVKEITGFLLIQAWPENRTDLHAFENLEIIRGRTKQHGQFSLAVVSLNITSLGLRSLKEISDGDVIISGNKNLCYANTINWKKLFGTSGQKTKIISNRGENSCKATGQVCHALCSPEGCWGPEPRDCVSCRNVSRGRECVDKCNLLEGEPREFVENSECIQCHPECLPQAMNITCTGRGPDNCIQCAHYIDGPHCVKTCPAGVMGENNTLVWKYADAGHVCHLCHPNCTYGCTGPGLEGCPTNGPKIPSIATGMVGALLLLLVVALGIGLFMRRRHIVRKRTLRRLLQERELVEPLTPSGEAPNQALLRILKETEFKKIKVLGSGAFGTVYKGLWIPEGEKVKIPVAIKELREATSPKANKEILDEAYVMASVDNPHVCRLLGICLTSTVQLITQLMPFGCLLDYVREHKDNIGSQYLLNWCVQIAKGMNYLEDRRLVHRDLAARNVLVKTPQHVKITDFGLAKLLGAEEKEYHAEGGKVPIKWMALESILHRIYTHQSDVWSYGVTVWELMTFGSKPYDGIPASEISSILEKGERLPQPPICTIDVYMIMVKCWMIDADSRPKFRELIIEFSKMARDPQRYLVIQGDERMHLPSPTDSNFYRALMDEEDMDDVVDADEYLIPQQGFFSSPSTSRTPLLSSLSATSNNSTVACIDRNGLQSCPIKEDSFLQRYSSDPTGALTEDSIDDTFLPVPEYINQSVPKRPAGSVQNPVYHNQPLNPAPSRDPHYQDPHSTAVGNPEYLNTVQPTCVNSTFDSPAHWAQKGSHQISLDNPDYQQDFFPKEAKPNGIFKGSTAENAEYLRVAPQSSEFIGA

Compound Cn1cnc2c1c(=O)n(CC(=O)NCc1ccccc1)c(=O)n2C [XI, N-Benzyl-2-(3,7-dimethyl-2,6-dioxo-2,3,6,7-tetrahydro-1H-purin-1-yl)acetamide] has an IC50 of 17.2 nM.
